US11826430B2, “Anti-cancer nuclear hormone receptor-targeting compounds” (Nuvation Bio Inc., priority 2019, dated 2023)

How the values were obtained:
[1] = system: 22RV1 cells; assay: Cell proliferation assay, CellTiter Glo; type: cell-based; settings: Homo sapiens, 22Rv1, 72 h; cell growth inhibition, three days of treatment
Description: (§1) a. […] IC50s were determined using 8 concentrations/compound. […] Ki=IC50/(1+[L]/Kd) c.
(§2) Cells were plated at varying density in the respective growth medium in 96 well plates. 24 hr later, cells were treated, in triplicate or quadruplicate, with test articles prepared in a range of concentrations by series dilution of DMSO stock solutions in growth medium and incubated for three to seven days. The number of viable 22RV1 and HT-29 cells was measured using CellTiter Glo assay (CTG, Promega, Madison, WI) after three days of treatment. Cell viability data were plotted using GraphPad Prism (GraphPad Software, Inc., San Diego, CA). In addition, a nonlinear regression model with a sigmoidal dose response and variable slope within GraphPad Prism was used to calculate the IC50 value of individual test articles.

[2] = system: HT-29 cells; assay: Cell proliferation assay, CellTiter Glo; type: cell-based; settings: Homo sapiens, HT-29, 72 h; cell growth inhibition, three days of treatment
Description: as §1, §2

[3] = biological target: Human recombinant PARP2 (Homo sapiens (Human), UniProt Q9UGN5); assay: RBC HotSpot PARP2 radioisotope-based filter binding assay; settings: read-out: PARP2 IC50; 2.5 nM PARP2, histone H3, 10 μM 32P-NAD+
Human recombinant PARP2, sequence (Q9UGN5 whole entry): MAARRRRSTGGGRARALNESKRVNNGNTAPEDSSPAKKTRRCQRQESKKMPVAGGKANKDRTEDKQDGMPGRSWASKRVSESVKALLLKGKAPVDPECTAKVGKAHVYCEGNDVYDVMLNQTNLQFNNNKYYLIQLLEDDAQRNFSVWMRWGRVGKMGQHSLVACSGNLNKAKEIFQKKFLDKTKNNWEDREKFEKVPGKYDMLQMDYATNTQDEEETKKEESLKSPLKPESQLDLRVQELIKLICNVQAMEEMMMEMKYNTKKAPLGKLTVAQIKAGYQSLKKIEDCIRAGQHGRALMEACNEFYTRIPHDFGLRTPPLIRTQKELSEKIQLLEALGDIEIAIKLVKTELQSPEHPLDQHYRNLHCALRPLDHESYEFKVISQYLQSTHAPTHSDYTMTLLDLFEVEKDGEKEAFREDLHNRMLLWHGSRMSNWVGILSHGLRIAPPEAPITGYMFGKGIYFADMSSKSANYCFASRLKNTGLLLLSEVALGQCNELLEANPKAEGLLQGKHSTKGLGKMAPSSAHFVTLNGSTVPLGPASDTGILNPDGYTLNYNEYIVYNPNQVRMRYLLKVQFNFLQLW
Description: (§3) RBC HotSpot Poly(ADP-ribose) Polymerases 1 (PARP1) and Poly(ADP-ribose) Polymerases 2 (PARP2) Assays: The assay was conducted at Reaction Biology Corporation (RBC; Malvern, PA). The assay principle is radioisotope-based filter binding assay where incorporation of radioisotope-labeled NAD^+ into the substrate captured on filter is detected after washout free NAD^+. Data were analyzed using Excel and GraphPad Prism software for IC50 curve fits. Each assay was conducted with PJ34 as a positive control. PARP1 assay: Human recombinant PARP1 at a final concentration of 2.5 nM was combined with histone H4 (20 μM) and test articles at various concentrations in reaction buffer (50 mM Tris-HCL, pH 8.0, 50 mM NaCl, 10 mM MgCl2, 1 mM DTT, 1% DMSO, and 20 μg/mL activated DNA). The solution was inoculated for 20 min at room temperature and the reaction initiated by adding [adenylate-^32P]-Nicotinamide Adenine Dinucleotide, ^32P-NAD^+ at a final concentration of 10 μM. After incubation for 2 hrs at room temperature, the reaction mixture was filtered and washed with 0.75% phosphoric acid for radioactivity detection. • ii. PARP2 assay: Human recombinant PARP2 at a final concentration of 2.5 nM was combined with histone H3 (20 μM) and test articles at various concentrations in reaction buffer (50 mM Tris-HCL, pH 8.0, 50 mM NaCl, 10 mM MgCl2, 1 mM DTT, 1% DMSO, and 20 μg/mL activated DNA). The solution was inoculated for 20 min at room temperature and the reaction was initiated by adding [adenylate-^32P]-Nicotinamide Adenine Dinucleotide, ^32P-NAD^+ at a final concentration of 10 μM. After incubation for 2 hrs at room temperature, the reaction mixture was filtered and washed with 0.75% phosphoric acid for radioactivity detection. b. AR binding assay: AR in LNCaP cytosol was used for determining the binding affinity of test articles and the reference compound—progesterone (Sigma, Cat: E2785, St. Louis, MO). IC50s were determined using 8 concentrations/compound. Cytosol was plated at 200 μg/well (100 μL) into a 96-well conical polypropylene plate (Agilent, Cat: 5042-1385, Santa Clara, CA) and mixed with 3 μL of test compound. After adding 100 μL of ^3H-methyltrienolone (PerkinElmer, Cat: NET590250UC, San Jose, CA), the plate was sealed and shaken at 300 rpm at 4° C. for 24 hours. Post incubation, 100 μL of radioligand adsorption buffer containing 10 mM Tris-HCl, pH 7.4; 1.5 mM EDTA; 1 mM DTT; 0.25% charcoal; 0.0025% dextran was added to individual well. Plate was shaken for 15 min at 4° C. followed by centrifugation at 3000 rpm for 30 min at 4° C. 150 μL of supernatant was transferred into scint-tube (PerkinElmer, Cat: 6000192) and mixed with 2 mL of Ultima Gold Cocktail (PerkinElmer, Cat: 6013329). Radioactivity was counted using a TriCarb 2910 TR scintillation counter (PerkinElmer). Inhibition of the radioactivity by test articles were calculated using the equation below: % Inhibition=(1−(Assay well-Average_LC)/(Average_HC-Average_LC))×100%. IC50 values were calculated and graphed using the model “log(inhibitor) vs. response—Variable slope” included in GraphPad Prism 5 (San Diego, CA). […] Ki=IC50/(1+[L]/Kd) c.

[4] = biological target: AR in LNCaP cytosol (Homo sapiens (Human), UniProt P10275, T878A); assay: AR binding assay (3H-methyltrienolone displacement); settings: read-out: AR IC50, 4° C. for 24 hours
AR in LNCaP cytosol, sequence (P10275 whole entry T878A): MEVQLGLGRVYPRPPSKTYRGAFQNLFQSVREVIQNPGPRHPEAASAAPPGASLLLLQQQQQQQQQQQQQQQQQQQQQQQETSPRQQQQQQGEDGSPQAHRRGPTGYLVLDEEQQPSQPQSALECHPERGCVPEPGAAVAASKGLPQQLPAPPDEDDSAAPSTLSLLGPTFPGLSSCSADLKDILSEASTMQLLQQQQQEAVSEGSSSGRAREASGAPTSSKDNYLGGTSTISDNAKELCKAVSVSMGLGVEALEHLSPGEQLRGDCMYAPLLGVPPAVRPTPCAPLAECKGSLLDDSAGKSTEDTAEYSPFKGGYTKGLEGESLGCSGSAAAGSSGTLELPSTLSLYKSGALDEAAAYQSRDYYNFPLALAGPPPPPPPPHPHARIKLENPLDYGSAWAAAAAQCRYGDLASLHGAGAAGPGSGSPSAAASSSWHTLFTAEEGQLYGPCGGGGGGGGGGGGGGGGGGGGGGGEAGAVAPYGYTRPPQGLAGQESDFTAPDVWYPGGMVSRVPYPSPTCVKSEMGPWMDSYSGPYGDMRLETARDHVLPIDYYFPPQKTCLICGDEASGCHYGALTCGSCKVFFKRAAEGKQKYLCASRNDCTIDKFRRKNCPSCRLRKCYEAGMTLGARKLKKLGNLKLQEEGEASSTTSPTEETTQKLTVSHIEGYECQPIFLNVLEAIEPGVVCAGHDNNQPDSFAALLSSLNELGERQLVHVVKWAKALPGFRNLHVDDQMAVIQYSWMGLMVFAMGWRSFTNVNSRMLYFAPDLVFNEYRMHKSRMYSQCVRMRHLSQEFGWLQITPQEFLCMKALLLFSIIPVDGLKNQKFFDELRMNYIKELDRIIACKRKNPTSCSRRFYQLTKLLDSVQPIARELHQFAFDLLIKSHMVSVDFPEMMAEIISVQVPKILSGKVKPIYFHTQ
Description: as §3

[5] = biological target: Human recombinant PARP1 (Homo sapiens (Human), UniProt P09874); assay: RBC HotSpot PARP1 radioisotope-based filter binding assay; settings: read-out: PARP1 IC50; 2.5 nM PARP1, histone H4, 10 μM 32P-NAD+
Human recombinant PARP1, sequence (P09874 whole entry): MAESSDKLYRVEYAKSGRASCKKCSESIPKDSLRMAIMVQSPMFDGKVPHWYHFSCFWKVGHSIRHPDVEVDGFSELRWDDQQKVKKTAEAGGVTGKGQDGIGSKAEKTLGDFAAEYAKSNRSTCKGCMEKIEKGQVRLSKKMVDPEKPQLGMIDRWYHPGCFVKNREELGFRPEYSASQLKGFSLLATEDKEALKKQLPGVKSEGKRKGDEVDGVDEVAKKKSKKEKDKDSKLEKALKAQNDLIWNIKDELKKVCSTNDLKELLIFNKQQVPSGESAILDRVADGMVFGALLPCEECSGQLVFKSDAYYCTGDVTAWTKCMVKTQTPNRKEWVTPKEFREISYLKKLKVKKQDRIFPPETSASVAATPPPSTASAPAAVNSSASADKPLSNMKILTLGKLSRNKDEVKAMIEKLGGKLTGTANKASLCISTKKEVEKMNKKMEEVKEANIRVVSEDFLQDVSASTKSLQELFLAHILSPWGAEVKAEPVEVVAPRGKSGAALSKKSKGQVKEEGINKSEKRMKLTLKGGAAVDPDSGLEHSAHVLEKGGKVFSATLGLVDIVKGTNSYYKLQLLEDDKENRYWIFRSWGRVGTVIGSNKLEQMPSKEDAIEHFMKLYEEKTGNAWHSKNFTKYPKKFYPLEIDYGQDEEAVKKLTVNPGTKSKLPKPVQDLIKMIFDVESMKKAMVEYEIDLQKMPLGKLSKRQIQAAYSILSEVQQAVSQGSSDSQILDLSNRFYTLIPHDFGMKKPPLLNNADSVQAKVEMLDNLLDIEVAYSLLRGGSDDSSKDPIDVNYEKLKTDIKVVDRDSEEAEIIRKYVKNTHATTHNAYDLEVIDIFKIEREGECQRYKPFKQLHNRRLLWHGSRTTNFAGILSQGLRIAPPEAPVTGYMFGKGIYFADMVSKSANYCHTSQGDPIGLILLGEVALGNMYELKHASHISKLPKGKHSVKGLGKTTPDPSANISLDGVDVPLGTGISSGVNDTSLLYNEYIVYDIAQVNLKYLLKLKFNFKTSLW
Description: as §3

CC1(C)C(=O)N(c2ccc(C#N)c(C(F)(F)F)c2)C(=O)N1CCNC(=O)c1cc(Cc2n[nH]c(=O)c3ccccc23)ccc1F [Compound 1.8, N-(2-(3-(4-cyano-3-(trifluoromethyl)phenyl)-5,5-dimethyl-2,4-dioxoimidazolidin-1-yl)ethyl)-2-fluoro-5-((4-oxo-3,4-dihydrophthalazin-1-yl)methyl)benzamide]
IC50 [1]: 5 µM | IC50 [2]: 17 µM | IC50 [3]: 0.001 µM | IC50 [4]: 0.503 µM | IC50 [5]: 0.01 µM
